O=c1[nH]cc(F)c(=O)[nH]1
solubility (mole fraction)
Conditions	283.15 K	288.15 K	293.15 K	298.15 K	303.15 K	308.15 K	313.15 K	318.15 K	323.15 K
in methanol	0.00313	0.00357	0.0041	0.00464	0.00521	0.0058	0.00643	0.00713	0.00787
in n-butanol	0.00101	0.00113	0.00128	0.00147	0.00168	0.00197	0.00232	0.00269	0.0031
in n-butyric acid	0.000247	0.000296	0.000364	0.000444	0.000557	0.000696	0.000877	0.00111	0.00143
in n-pentanol	0.000791	0.000902	0.00104	0.0012	0.0014	0.00166	0.00199	0.00226	0.00286
in n-propanol	0.00184	0.00213	0.00242	0.00272	0.00303	0.00338	0.00376	0.00415	0.00465
in propionic acid	0.000374	0.000454	0.000536	0.000668	0.000816	0.00101	0.0013	0.00166	0.00214
in water	0.0011	0.00131	0.00153	0.00175	0.00198	0.00229	0.00256	0.00298	0.00345

— BigSolDB 2.1
